Read-outs that look alike come from different tables or passages of the source.
What was measured:
[1] = molecular target: T1, butyrylcholinesterase (BuChE) (Homo sapiens, UniProt P06276); test: biochemical
T1 construct: purchased MyBiosource, CA, and USA MBS846801
Description: (§1) The in vitro AChE and BuChE inhibitory effects and selectivity of nine TCM compounds were evaluated using the QuantiChrom^TM AChE inhibitor screening kit (IACE-100, bioassay systems, USA) for AChE inhibition and the BuChE activity kit (catalog # MBS846801, MyBiosource, CA, USA) for BuChE inhibition. […] The QuantiChrom^TM kit was used to assess the activity of AChE and BuChE by recording enzymatic activity at different concentrations of the test compounds and comparing it to activity without inhibitors, followed by plotting dose-response curves. The experimental data were fitted by nonlinear regression analysis to yield IC50 values. The selectivity of the compounds for AChE relative to BuChE was determined by calculating the Selectivity Index (SI) using the formula BuChE IC50 values are divided by AChE IC50 values to obtain SI.

[2] = molecular target: T2, acetylcholinesterase (AChE) (Homo sapiens, UniProt P22303); test: biochemical; conditions: for IC50: mean ± SD, n = 3, each in triplicate
T2 construct: purchased bioassay systems, USA IACE-100
Description: as §1

[3] = molecular target: T3, Acetylcholinesterase (AChE) (Rattus norvegicus, UniProt P37136); test: AChE levels in LA-AD rats; format: in vivo; conditions: 1 mg/kg IP for 15 days
T3 construct: The tissues were then homogenized, processed for biochemical analysis; from tissue; host or cells: brain of male Wistar rats (cerebellum, cerebral cortex, hippocampus homogenates)
Description: (§2) Fifty male Wistar rats (n = 50) were obtained from a certified animal facility, Shenzhen Bay Laboratory (SZBL) Laboratory Animal Platform, China. The rats were acclimatized to the laboratory environment for one week prior to the experiment. During this period, they were kept in standard polypropylene cages for rodents under controlled conditions, with a room temperature of 22°C, relative humidity of 50%, and a 12-hour light-dark cycle, with lights on from 06:00 to 18:00. The rats had ad libitum access to a standard rodent diet and filtered water to ensure optimal health and hydration. Routine monitoring of housing conditions was conducted to ensure compliance with ethical standards. To establish an AD model, the rats underwent intraperitoneal (IP) administration with lead acetate-induced AD (LA-AD, 50 mg/kg) for 15 days to mimic the neurodegenerative features of AD.
Following AD induction, the rats were randomly divided into five groups: (1) Group I (control): DMSO contained in drinking water at a 5% concentration, without neurotoxic effects, in normal rats; (2) group II (LA-AD): The LA-AD rats for 15 days; […]. […]. […]
(§3) A 12-hour fasting period was imposed on the rats immediately after the final dose of treatment to minimize the effect of recent food intake on blood parameters. […] The toxicological effects of the treatment were assessed through analysis of blood lead concentrations. […]

[4] = test system: lead acetate-induced AD (LA-AD) rats; test: Glutathione (GSH) content in brain tissue of LA-AD rats; format: in vivo, rat; conditions: 1 mg/kg IP for 15 days, compared to the LA-AD group
Description: Fifty male Wistar rats (n = 50) were obtained from a certified animal facility, Shenzhen Bay Laboratory (SZBL) Laboratory Animal Platform, China. The rats were acclimatized to the laboratory environment for one week prior to the experiment. During this period, they were kept in standard polypropylene cages for rodents under controlled conditions, with a room temperature of 22°C, relative humidity of 50%, and a 12-hour light-dark cycle, with lights on from 06:00 to 18:00. […] Routine monitoring of housing conditions was conducted to ensure compliance with ethical standards. To establish an AD model, the rats underwent intraperitoneal (IP) administration with lead acetate-induced AD (LA-AD, 50 mg/kg) for 15 days to mimic the neurodegenerative features of AD.
A 12-hour fasting period was imposed on the rats immediately after the final dose of treatment to minimize the effect of recent food intake on blood parameters. […] Following 28 days of exposure, the rats were euthanized by cervical decapitation, and their brains were removed to minimize tissue damage. The brains were dissected into specific regions, including the cerebellum and cerebral cortex, for deeper analysis. […]
Glutathione (GSH) levels in cerebral tissue were quantified by extracting proteins from the homogenate. […]

[5] = test system: lead acetate-induced AD (LA-AD) rats; test: Lipid peroxidation (MDA) in brain tissue of LA-AD rats; format: in vivo, rat; conditions: 1 mg/kg IP for 15 days, compared to the LA-AD group
Description: The rats were acclimatized to the laboratory environment for one week prior to the experiment. During this period, they were kept in standard polypropylene cages for rodents under controlled conditions, with a room temperature of 22°C, relative humidity of 50%, and a 12-hour light-dark cycle, with lights on from 06:00 to 18:00. […] Routine monitoring of housing conditions was conducted to ensure compliance with ethical standards. To establish an AD model, the rats underwent intraperitoneal (IP) administration with lead acetate-induced AD (LA-AD, 50 mg/kg) for 15 days to mimic the neurodegenerative features of AD.
Following 28 days of exposure, the rats were euthanized by cervical decapitation, and their brains were removed to minimize tissue damage. The brains were dissected into specific regions, including the cerebellum and cerebral cortex, for deeper analysis. The cerebellum, cerebral cortex, and hippocampus were isolated in sodium chloride solution and washed with ice-cold solution. The tissues were then homogenized, processed for biochemical analysis, and submerged in ice-cold 0.1 M phosphate buffer. […]
The reaction mixtures were then transferred into centrifuge tubes and centrifuged at 3800 × g for 25 minutes. […] After cooling, the absorbance of the samples was measured at 530 nm using a spectrophotometer (BIOBASE BK-UV1800PC, China).

[6] = molecular target: T4, butyrylcholinesterase (BuChE) (Rattus norvegicus, UniProt Q9JKC1); test: BuChE levels in LA-AD rats; format: in vivo; conditions: 1 mg/kg IP for 15 days
T4 construct: The tissues were then homogenized, processed for biochemical analysis; from tissue; host or cells: brain of male Wistar rats (cerebellum, cerebral cortex, hippocampus homogenates)
Description: as §2
Following AD induction, the rats were randomly divided into five groups: (1) Group I (control): DMSO contained in drinking water at a 5% concentration, without neurotoxic effects, in normal rats; (2) group II (LA-AD): The LA-AD rats for 15 days; […]. […]
as §3

[7] = mean ± SD, n = 3, each in triplicate, read-out: IC50 BuChE
[8] = BuChE IC50 divided by AChE IC50

T2 sequence (P22303 32-614): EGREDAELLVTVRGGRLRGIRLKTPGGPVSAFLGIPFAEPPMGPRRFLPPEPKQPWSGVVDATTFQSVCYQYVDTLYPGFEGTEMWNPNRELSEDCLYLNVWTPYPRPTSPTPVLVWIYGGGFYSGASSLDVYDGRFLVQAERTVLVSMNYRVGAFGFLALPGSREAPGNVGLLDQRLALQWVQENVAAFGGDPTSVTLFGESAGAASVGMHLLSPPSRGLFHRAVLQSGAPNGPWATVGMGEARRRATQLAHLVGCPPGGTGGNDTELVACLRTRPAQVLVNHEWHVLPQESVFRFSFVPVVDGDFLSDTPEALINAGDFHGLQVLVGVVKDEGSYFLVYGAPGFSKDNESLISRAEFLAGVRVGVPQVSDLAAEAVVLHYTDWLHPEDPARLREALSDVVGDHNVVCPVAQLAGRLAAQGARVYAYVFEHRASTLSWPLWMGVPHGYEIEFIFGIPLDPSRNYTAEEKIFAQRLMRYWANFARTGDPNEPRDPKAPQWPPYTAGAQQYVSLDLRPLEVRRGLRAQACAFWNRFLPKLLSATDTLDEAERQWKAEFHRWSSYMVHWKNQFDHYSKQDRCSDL
T1 sequence (P06276 29-602): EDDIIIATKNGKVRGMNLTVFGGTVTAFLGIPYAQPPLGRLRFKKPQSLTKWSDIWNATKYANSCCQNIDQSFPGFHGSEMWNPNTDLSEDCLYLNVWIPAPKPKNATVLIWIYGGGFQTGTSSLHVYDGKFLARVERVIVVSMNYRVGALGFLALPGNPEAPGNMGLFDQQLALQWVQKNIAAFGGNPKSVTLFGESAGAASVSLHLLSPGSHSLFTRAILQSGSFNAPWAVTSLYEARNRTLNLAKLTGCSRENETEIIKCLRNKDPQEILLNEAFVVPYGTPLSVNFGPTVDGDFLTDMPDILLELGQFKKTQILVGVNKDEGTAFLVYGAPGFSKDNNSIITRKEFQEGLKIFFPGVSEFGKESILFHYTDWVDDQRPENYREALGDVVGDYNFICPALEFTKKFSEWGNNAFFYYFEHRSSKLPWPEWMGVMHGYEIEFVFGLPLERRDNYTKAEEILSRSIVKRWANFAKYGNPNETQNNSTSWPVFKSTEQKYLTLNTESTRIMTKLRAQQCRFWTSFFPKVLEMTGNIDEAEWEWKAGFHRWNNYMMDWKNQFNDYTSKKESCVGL
T3 sequence (P37136 32-614): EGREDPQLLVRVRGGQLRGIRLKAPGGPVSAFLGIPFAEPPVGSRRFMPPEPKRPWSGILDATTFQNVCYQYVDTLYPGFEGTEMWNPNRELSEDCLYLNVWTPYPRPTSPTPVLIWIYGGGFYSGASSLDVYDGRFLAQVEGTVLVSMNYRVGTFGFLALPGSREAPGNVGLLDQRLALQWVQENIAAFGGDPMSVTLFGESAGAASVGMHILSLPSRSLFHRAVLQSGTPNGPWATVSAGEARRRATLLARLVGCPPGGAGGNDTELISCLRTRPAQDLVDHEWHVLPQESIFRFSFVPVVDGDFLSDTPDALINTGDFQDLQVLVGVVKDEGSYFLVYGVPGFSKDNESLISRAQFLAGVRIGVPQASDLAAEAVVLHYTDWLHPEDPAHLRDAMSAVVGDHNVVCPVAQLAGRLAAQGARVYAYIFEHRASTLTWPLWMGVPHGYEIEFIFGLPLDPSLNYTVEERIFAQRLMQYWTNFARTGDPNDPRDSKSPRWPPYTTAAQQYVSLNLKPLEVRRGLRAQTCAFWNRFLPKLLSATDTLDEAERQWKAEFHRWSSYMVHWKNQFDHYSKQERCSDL
T4 sequence (Q9JKC1 24-597): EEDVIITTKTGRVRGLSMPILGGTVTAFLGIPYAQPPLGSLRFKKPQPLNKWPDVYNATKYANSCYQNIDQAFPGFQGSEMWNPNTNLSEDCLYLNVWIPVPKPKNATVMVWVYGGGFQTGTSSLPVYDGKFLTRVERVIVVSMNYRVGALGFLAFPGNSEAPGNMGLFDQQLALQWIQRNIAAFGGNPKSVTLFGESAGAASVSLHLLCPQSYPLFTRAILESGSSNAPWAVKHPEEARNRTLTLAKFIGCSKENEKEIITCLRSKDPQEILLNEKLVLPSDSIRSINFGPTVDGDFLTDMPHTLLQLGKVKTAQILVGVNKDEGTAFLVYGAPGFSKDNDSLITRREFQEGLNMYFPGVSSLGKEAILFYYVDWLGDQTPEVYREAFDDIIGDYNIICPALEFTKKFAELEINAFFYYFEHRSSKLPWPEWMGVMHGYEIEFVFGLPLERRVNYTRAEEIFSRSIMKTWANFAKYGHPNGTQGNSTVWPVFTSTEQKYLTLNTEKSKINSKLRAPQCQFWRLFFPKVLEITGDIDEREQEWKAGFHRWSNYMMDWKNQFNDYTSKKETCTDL

| Compound | IC50 [1, 7] [nM] | IC50 [2] [nM] | IC50 [1] [nM] | also measured |
| --- | --- | --- | --- | --- |
| CC1(C)C=Cc2c(cc3occ(-c4ccc(O)cc4)c(=O)c3c2O)O1 [Alpinumisoflavone] | 29.2 ± 1.4 | 90.3 ± 4.13 |  | BuChE/AChE Selectivity [2, 8]: 0.32 |
| C=C1CCC[C@]2(C)C[C@]3(O)OC(=O)C(C)=C3C[C@@H]12 [Atractylenolide III] |  | 83.1 ± 2.43 | 31.3 ± 2.62 | BuChE/AChE Selectivity [2]: 0.38 |
| Cc1cc(=O)cc2c3c1CC1C4OC(=O)C(CC2)(C(C)C4O)C31 (stereo not shown) [Hainanolidol] | 12.3 | 44.3 |  | AChE activity [3]: significantly decreased; Glutathione (GSH) levels [4]: significantly increased; Malondialdehyde (MDA) levels [5]: significantly reduced; BuChE activity [6]: significantly decreased |
| COC(=O)C1=CO[C@@H](O[C@@H]2O[C@H](CO)[C@@H](O)[C@H](O)[C@H]2O)[C@@H]2[C@H](C)O[C@@H](O)C[C@H]12 [Morroniside] | 18.2 ± 2.12 | 41.6 ± 2.02 |  |  |
| COc1cc2c3c(c1O)-c1c(ccc(OC)c1OC)C[C@@H]3NCC2 [Norcorydine] |  | 87.2 ± 4.12 | 102 ± 3.13 |  |
| O=c1cc(-c2ccccc2)oc2c(O)c(O)cc(O)c12 [Norwogonin] | 15.2 | 33.6 |  | AChE activity [3]: significantly decreased; Glutathione (GSH) levels [4]: significantly increased; Malondialdehyde (MDA) levels [5]: significantly reduced; BuChE activity [6]: significantly decreased |
| COc1cc2c(c(OC)c1OC)-c1c(cc3c(c1OC)OCO3)CC(C)C(C)C2 (stereo not shown) [Schisandrin B] |  | 90.4 ± 4.41 | 82.3 ± 1.21 |  |
| Asiaticoside |  |  |  | BuChE/AChE Selectivity [2, 8]: 1.17 |

From article PMC12296705, “In Vivo and Bioinformatics Evaluation of Nine Traditional Chinese Medicine Compounds Targeting Acetylcholinesterase and Butyrylcholinesterase Enzymes in Alzheimer’s Disease” (Iranian Journal of Pharmaceutical Research : IJPR, 2025)
